Data published in article PMC8353992 (Journal of medicinal chemistry, 2021).

What was measured:
[1] = for decrease in CLint compared to 36: human, rat, s9
[2] = target: SARS-CoV-2 3CL^pro (Severe acute respiratory syndrome coronavirus 2, UniProt P0DTD1); assay type: biochemical
[3] = human, pH 7.4

## O=C(Nc1ccc(N(Cc2ccsc2)C(=O)Cn2nnc3ccccc32)cc1)C1CC1 [Compound 1, reference compound]
[1]; microsomes
  microsomal clearance: exceptionally high

## O=C(Cn1nnc2ccccc21)N(Cc1ccsc1)c1ccc(-c2cccnc2)cc1 [Compound 8, 2-(1H-Benzo[d][1,2,3]triazol-1-yl)-N-(4-(pyridin-3-yl)phenyl)-N-(thiophen-3-ylmethyl)acetamide]
[2]
  ligand efficiency (LE): 0.27

## O=C(Cn1nnc2ccccc21)N(Cc1cccc(Cl)c1)c1ccc(-c2cn[nH]c2)cc1 [Compound 36, N-(4-(1H-Pyrazol-4-yl)phenyl)-2-(1H-benzo[d][1,2,3]triazol-1-yl)-N-(3-chlorobenzyl)acetamide]
[3]
  M1 metabolite formation (oxidation of the benzylic 3-chlorophenyl ring): 60%
  M3 metabolite formation (cleavage of the 3-chlorobenzyl group): 7%

## O=C(Cc1cccnc1)N(Cc1cccc(Cl)c1)c1ccc(-c2cn[nH]c2)cc1 [Compound 42, N-[(3-Chlorophenyl)methyl]-N-[4-(1H-pyrazol-4-yl)phenyl]-2-(3-pyridyl)acetamide]
[1]
  decrease in CLint compared to 36: 2 fold

## O=C(Cc1cncnc1)N(Cc1cccc(Cl)c1)c1ccc(-c2cn[nH]c2)cc1 [Compound 43, N-[(3-Chlorophenyl)methyl]-N-[4-(1H-pyrazol-4-yl)phenyl]-2-pyrimidin-5-yl-acetamide]
[1]
  decrease in CLint compared to 36: 4 fold
